Laboratory results from patent publication US9556217B2, “Amphiphilic compounds” (WISCONSIN ALUMNI RESEARCH FOUNDATION, priority 2012, dated 2017).
Where two headings read alike, the source gives them in different places.

Experiments:
[1] = Critical micelle concentration (fluorescent dye solubilization); type: physicochemical
Excerpt: The “Critical Micelle Concentration” (CMC) refers to the concentration of a detergent (e.g., an amphiphile as described herein) in an aqueous solution at which the detergent molecules self-assemble into micelles. Below the CMC, detergents are mostly monomeric; above the CMC, micelle concentration increases linearly with detergent concentration. The CMC is dependent upon many factors and is detergent-specific. The CMC of a detergent can be determined experimentally by measuring the solubilization of a water-insoluble dye or fluorophore while varying the concentration of detergent. A CMC may also be determined by measuring the diminution of the surface tension of an aqueous solution as a function of detergent concentration (CMCs determined by either method correlate with each other). The CMC is determined by extrapolating the plot of solubilization vs. concentration (or surface tension vs. concentration) in the two linear regions above and below the CMC. Where the two lines intersect is the CMC. The CMC can also be determined by the method of Nugebauer, J. M. (1990), Methods in Enzymology, 182:239-253.
The four compounds were readily prepared on a multi-gram scale (see Examples 1 and 2 below, and FIGS. 13-15), as is necessary if they are to serve as research tools. All four are highly soluble in aqueous solution (>20 wt %) and have relatively low critical micelle concentrations (CMC; determined by fluorescent dye solubilization).

[2] = Hydrodynamic radius of micelles by dynamic light scattering; type: physicochemical; conditions: Mean ± SD, n = 5
Excerpt: These values are somewhat smaller than the CMC of DDM, which indicates a strong tendency of the new agents to self-assemble, and which can be advantageous for IMP handling because detrimental levels of non-micellar amphiphile can be avoided. Table 1 provides the hydrodynamic radius (Rh) of the micelles formed by each amphiphile, as determined by dynamic light scattering (DLS). The micelles formed by GLC amphiphiles are slightly smaller than those formed by DDM, while the micelles formed by GDN are slightly larger.

wild type β2AR (β2AR WT) = biological target: T1, wild type β2AR (β2AR WT) (Homo sapiens, UniProt P07550); assay: β2AR WT activity after extraction ([3H]-dihydroalprenolol binding); type: biochemical
T1 construct: made in house; host or cells: Sf9 insect cells (baculovirus); lysed cells and membranes extracted directly with amphiphile
Description: In the examples discussed above, conventional detergents such as DDM were used to extract IMPs from the membrane, and then in most cases the solution of detergent-solubilized protein was diluted with amphiphile-containing solutions to evaluate the new agents. With this approach it is possible that the small amount of residual conventional detergent could affect protein stability. To exclude this possibility, GLC-3 and GDN were used to extract wild type β2AR (β2AR WT) (Kobilka, Trends in Pharmacological Sciences 2011, 32, 213-218) from the membrane. Receptor activity was measured via a binding assay involving the antagonist [^3H]-dihydroalprenolol. […] GDN is therefore highly suitable for GPCR extraction.
(§1) A gene encoding amino-terminally FLAG epitope tagged β2AR was expressed in Sf9 cells by baculovirus, with no ligand present during culture. Cells were infected at a density of 4×10^6 cells/mL and then cultured for 48 hours prior to harvesting by centrifugation. Cells were resuspended and lysed by osmotic shock with a low ionic strength buffer (20 mM Tris pH 7.5, 1 mM EDTA). The lysed cells were aliquoted 35 mg per aliquot, then frozen. For extraction tests, 300 μL of solubilization buffer (20 mM HEPES pH 7.5, 100 mM NaCl) containing each amphiphile was added to each aliquot, which was then homogenized by pipet followed by grinding with a glass dounce tissue homogenizer. After two-hour incubation at 4° C., samples were centrifuged at maximum speed in a tabletop microcentrifuge to pellet insoluble material. Supernatant was removed and assayed for protein concentration by DC protein assay (Bio-Rad).
The amount of functional receptor was quantified by incubation for 1 hour with 10 nM 3H dihydroalprenolol. Samples were then separated by gel filtration over G-50 resin and radioactivity was quantified by liquid scintillation. Nonspecific binding was measured in the presence of 10 μM alprenolol. Assays were performed in triplicate at time points indicated. G-50 filtration was performed in buffer containing 20 mM HEPES pH 7.5, 100 mM NaCl, 10-fold CMC of the detergent tested. All binding assays were performed with ice cold buffers.

[3] = test system: δ-opioid receptor-T4L fusion (δOR-T4L); assay: δOR-T4L activity after solubilization ([3H]-diprenorphine binding); type: biochemical; conditions: extracted with 1.0 wt % of amphiphile
Excerpt: We turned to a δ-opioid receptor-T4L fusion (δOR-T4L), another GPCR, to compare GDN with the recently reported amphiphile MNG-3 (P. S. Chae, et al., Nat. Methods 2010, 7, 1003-1008), which has proven to be essential for crystallization of several other GPCR constructs (Rasmussen, et al., Nature 2011, 469, 236-240; Rosenbaum, et al., Nature 2011, 469, 175-180; Rasmussen, et al., Nature 2011, 477, 540-541; Kruse, et al., Nature 2012, 482, 552-556; Haga, et al., Nature 2012, 482, 547-551). […] The ability of the new amphiphiles to stabilize membrane proteins thus allows for the ability to perform analyses and structural studies that could not be performed with other detergents such as DDM because harsher detergents (e.g., DDM) can remove important lipid moieties from the proteins, causing them to denature and rapidly loose activity.
FLAG epitope tagged δOR-T4L was expressed in Sf9 insect cells using baculovirus particles generated by the pFastBac vector system (Invitrogen). Insect cells were infected and cultured as for the β2AR and cells were lysed by osmotic shock as done for cells expressing β2AR. Lysed cells were used for extraction tests by adding 40 mg of cells to 200 μL of solubilization buffer (20 mM HEPES pH 7.5, 100 mM NaCl) containing each amphiphile. […] The amount of functional receptor after solubilization was quantified by incubation for 1 hour with 10 nM 3H diprenorphine. […]

β2AR WT = biological target: T2, β2AR WT (Homo sapiens, UniProt P07550); assay: Extraction of β2AR WT from insect cell membranes; conditions: 1 wt %; western blotting
T2 construct: made in house; host or cells: Sf9 insect cells (baculovirus); lysed cells and membranes extracted directly with amphiphile
Description: (§2) The favorable MelB extraction performance of GDN led to the examination of this amphiphile for extraction of other IMPs. […] DDM and GDN were used to extract a CMP-Sia fusion protein bearing green fluorescent protein (GFP) at the C-terminus, after expression in Saccharomyces cerevisiae; the amount of solubilized protein was estimated by total fluorescence. GDN (2 wt %), DDM (1 wt %) and OG (1 wt %) gave ˜70%, ˜80% and ˜50% extraction yields, respectively.
(§3) The procedure was performed according to the protocol reported by Chae and coworkers (Nat. Methods 2010, 7, 1003-1008).
as §1, with “Supernatant was removed and assayed for protein concentration by DC protein assay (Bio-Rad).” left out

[4] = biological target: T3, CMP-Sia fusion protein bearing green fluorescent protein (GFP) (Mus musculus, UniProt Q61420); assay: CMP-Sia-GFP fusion solubilization (fluorescence); conditions: 1 wt %, 1 hr at 4° C., total fluorescence
T3 construct: made in house; host or cells: Saccharomyces cerevisiae FGY217
Description: as §2, §3
CMP-Sia was expressed as a fusion protein with a C-terminal GFP in FGY217 Saccharomyces cerevisiae cells. Cell lysis was conducted by using a cell disrupter (Constant Systems) and the protein samples were subjected to centrifugation at 15,000 g for 10 mins to remove unbroken cells and debris. Subsequently, the membranes were harvested by ultracentrifugation at 150,000 g for 45 min. The membranes were resuspended in 50 mM Tris-HCl (pH 7.6), 1 mM EDTA, 0.6 M sorbitol and the protein concentration was estimated using a BCA kit (Pierce). The membranes were incubated with OG or DDM at 1.0%, or GDN at 2.0% for 1 hr at 4° C. A fluorescence value was measured for each sample before and after ultracentrifugation at 150,000 g for 1 h. The solubilization efficiency was calculated via the fluorescence measurements of the soluble supernatant/the total sample.

[5] = stated in the bR protocol; cited from earlier work

T1 sequence (P07550 whole entry): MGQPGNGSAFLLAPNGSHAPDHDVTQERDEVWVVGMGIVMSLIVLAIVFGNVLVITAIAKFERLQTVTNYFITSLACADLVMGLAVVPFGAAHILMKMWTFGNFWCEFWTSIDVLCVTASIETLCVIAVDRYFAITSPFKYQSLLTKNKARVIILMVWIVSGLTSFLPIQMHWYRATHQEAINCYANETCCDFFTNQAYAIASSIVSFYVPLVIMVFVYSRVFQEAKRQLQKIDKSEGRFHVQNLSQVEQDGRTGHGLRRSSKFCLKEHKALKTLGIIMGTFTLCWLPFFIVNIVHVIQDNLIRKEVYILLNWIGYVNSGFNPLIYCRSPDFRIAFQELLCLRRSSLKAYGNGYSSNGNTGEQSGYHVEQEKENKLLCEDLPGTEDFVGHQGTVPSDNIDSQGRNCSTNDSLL
T2 sequence (P07550 whole entry): as above

| SMILES | CMC [1] [µM] | CMC (wt %) [1] [wt %] | Rh (nm), hydrodynamic radius of micelles [2] [nm] | further results |
| --- | --- | --- | --- | --- |
| CO[C@@H]1CC[C@@]2(C)[C@H](CC[C@@H]3[C@@H]2CC[C@]2(C)[C@@H]([C@H](C)CCC(=O)NC(CO[C@@H]4OC(CO)C(O[C@@H]5OC(CO)[C@@H](O)[C@H](O)C5O)[C@@H](O)C4O)CO[C@@H]4OC(CO)[C@@H](O[C@H]5OC(CO)[C@@H](O)[C@H](O)C5O)[C@H](O)C4O)CC[C@@H]32)C1 (stereo partly drawn) [GLC-1] | ~52 | ~0.006 | 3.22 ± 0.03 | – |
| CO[C@@H]1CC[C@@]2(C)[C@H](CC[C@@H]3[C@@H]2CC[C@]2(C)C(C(C)CCCC(CO[C@@H]4OC(CO)C(O[C@@H]5OC(CO)[C@@H](O)[C@H](O)C5O)[C@@H](O)C4O)CO[C@@H]4OC(CO)[C@@H](O[C@H]5OC(CO)[C@@H](O)[C@H](O)C5O)[C@H](O)C4O)CC[C@@H]32)C1 (stereo partly drawn) [GLC-3] | ~7.1 | ~0.00077 | 3.27 ± 0.08 | β2AR WT initial activity (wild type β2AR (β2AR WT); extracted with 1 wt % or 2 wt % amphiphile, [3H]-dihydroalprenolol binding): initial activity similar to that of DDM; β2AR WT activity over 72 hours (wild type β2AR (β2AR WT); solubilized samples stored at 4° C.): activity was maintained over 72 hours |
| CCCCCCCCCCC(CCCCCCCCCC)(CO[C@@H]1O[C@H](CO)[C@@H](O[C@H]2O[C@H](CO)[C@@H](O)[C@H](O)[C@H]2O)[C@H](O)[C@H]1O)CO[C@@H]1O[C@H](CO)[C@@H](O[C@H]2O[C@H](CO)[C@@H](O)[C@H](O)[C@H]2O)[C@H](O)[C@H]1O [MNG-3, reference compound] | – | – | – | δOR-T4L ligand binding activity after solubilization [3]: higher activity than DDM-solubilized δOR-T4L |
| CCCCCCCCO[C@@H]1O[C@H](CO)[C@@H](O)[C@H](O)[C@H]1O [OG, octyl-β-D-glucoside, reference compound] | – | – | – | β2AR WT detected after extraction (β2AR WT): only a very small amount of β2AR WT was detected; CMP-Sia-GFP extraction yield [4]: ~50% |
| CCCCCCCCS[C@@H]1O[C@H](CO)[C@@H](O)[C@H](O)[C@H]1O [OTG, octyl-β-D-thioglucoside] | – | – | – | CMC [5]: 0.28 wt % |
